# Results published in EP0119737A2, “Pharmaceutical composition and its production” (Takeda Chemical Industries, Ltd., priority 1983, dated 1984).
# Columns and labels:
# [1] = tested on: Escherichia coli IFO 3044; assay: Minimal inhibitory concentration (MIC) of preservative solutions, serial dilution in culture medium, read with the naked eye; assay type: cell-based; conditions: IFO3044, 72 h, E. coli IFO 3044, 10^5 cfu/ml, 35°C, 3 days
# Protocol: (§1) Thus, two culture media are prepared by adding 0% and 5% of a-cyclodextrin, respectively, to a 1/15 M phosphate buffer (pH 6.5) containing 2% of Polypeptone (Daigo Nutritive Chemicals Ltd., Japan). The preservative is added to each medium and the resulting solution is diluted serially with each of the respective media to give solutions differing in preservative concentration. The test organisms are added to these solutions to a final concentration of 10^5 cfu/ml (cfu: colony forming unit).
# [2] = tested on: Aspergillus niger ATCC 9642; assay: as above; assay type: cell-based; conditions: ATCC9642, 120 h, A. niger ATCC 9642, 10^5 cfu/ml, 25°C, 5 days
# Protocol: as §1
# [3] = pH 6.5, Culture medium + 5% α-cyclodextrin
# [4] = pH 6.5, Culture medium without addition of cyclodextrin
"MIC [1, 3] [µg/mL]","MIC [1, 4] [µg/mL]","MIC [2, 3] [µg/mL]","MIC [2, 4] [µg/mL]",SMILES
4000,500,4000,250,CCOC(=O)c1ccc(O)cc1 [Ethylparaben]
4000,500,4000,500,COC(=O)c1ccc(O)cc1 [Methylparaben]
4000,250,4000,125,CCCOC(=O)c1ccc(O)cc1 [Propylparaben]
150,100,75,50,"Cc1cc(O)cc(C)c1Cl [p-Chloro-m-xylenol, p-chloro-m-xylenol]"

SMILES,"MIC [1, 3] [µg/mL]","MIC [1, 4] [µg/mL]","MIC [2, 3] [µg/mL]","MIC [2, 4] [µg/mL]"
CCCCOC(=O)c1ccc(O)cc1 [Butylparaben],4000,125,4000,125
"Cc1cc(O)ccc1Cl [p-Chloro-m-cresol, p-chloro-m-cresol]",200,200,200,100
"Oc1ccc(Cl)cc1 [p-Chlorophenol, p-chlorophenol]",400,200,400,200
